Experimental data: ChEMBL document CHEMBL1201862, “PubChem BioAssay data set” (2004)
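Following 48 hours of exposure in 96-well plates, responses at five concentrations were used to interpolate endpoints linearly. At the GI50, growth is halved.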 Calls of active or inactive are those of the source. No stated cut-off is given here; in the data, active = GI50 up to about 1.1 µM and inactive = higher.

Key:
Experiment in all cases: NCI tumour cell line growth inhibition, 48 h
SK-MEL-5 = tested on: SK-MEL-5
HOP-92 = tested on: HOP-92
UO-31 = tested on: UO-31
SF-295 = tested on: SF-295
HT-29 = tested on: HT-29
HCT-116 = tested on: HCT-116
NCI-H226 = tested on: NCI-H226
KM12 = tested on: KM12
OVCAR-8 = tested on: OVCAR-8
LOX IMVI = tested on: LOX IMVI
ACHN = tested on: ACHN
K562 = tested on: K562
SK-OV-3 = tested on: SK-OV-3
HOP-62 = tested on: HOP-62
CAKI-1 = tested on: CAKI-1
786-0 = tested on: 786-0
MCF7 = tested on: MCF7
CCRF-CEM = tested on: CCRF-CEM
RPMI-8226 = tested on: RPMI-8226
SR = tested on: SR

Measured: GI50

C=C(CO)[C@H]1CC/C(C)=C/CC/C(C)=C/C/C=C(\C)[C@H](O)C1
inactive: SK-MEL-5 18.9 µM | HOP-92 19.8 µM | UO-31 30.9 µM | SF-295 34.8 µM | HT-29 18.5 µM | HCT-116 26.9 µM | NCI-H226 30.5 µM | KM12 15.9 µM | OVCAR-8 17.8 µM | LOX IMVI 27.5 µM | ACHN 26.3 µM | K562 37.8 µM | SK-OV-3 > 100 µM | HOP-62 > 100 µM | CAKI-1 31.3 µM | 786-0 17.3 µM | MCF7 26 µM | CCRF-CEM > 100 µM | RPMI-8226 20 µM

S=c1nc(Nc2ccccc2)c2c3c(sc2[nH]1)CCCC3
inactive: SK-MEL-5 > 100 µM | UO-31 > 100 µM | SF-295 > 100 µM | HT-29 > 100 µM | HCT-116 > 100 µM | NCI-H226 > 100 µM | KM12 > 100 µM | OVCAR-8 > 100 µM | LOX IMVI > 100 µM | ACHN > 100 µM | SR 8.67 µM | K562 > 100 µM | HOP-62 > 100 µM | CAKI-1 > 100 µM | 786-0 > 100 µM | MCF7 > 100 µM | RPMI-8226 > 100 µM

O=S(=O)(SC1=NCCN1)c1ccc2ccccc2c1
inactive: SK-MEL-5 26.5 µM | HOP-92 51.1 µM | UO-31 29.4 µM | SF-295 24.8 µM | HT-29 20 µM | HCT-116 22.5 µM | NCI-H226 28.9 µM | KM12 20.2 µM | OVCAR-8 20.7 µM | LOX IMVI 31.4 µM | ACHN 39.5 µM | K562 22.7 µM | SK-OV-3 22.6 µM | HOP-62 23.3 µM | CAKI-1 95.1 µM | 786-0 28.1 µM | MCF7 29.4 µM | CCRF-CEM 21 µM | RPMI-8226 26.4 µM

Cn1nc2ccc([N+](=O)[O-])c(Cn3nnc4ccccc43)c2n1
inactive: SK-MEL-5 79.4 µM | HOP-92 > 100 µM | UO-31 > 100 µM | SF-295 > 100 µM | HT-29 > 100 µM | HCT-116 > 100 µM | NCI-H226 > 100 µM | KM12 76.7 µM | OVCAR-8 > 100 µM | LOX IMVI 82.8 µM | ACHN > 100 µM | K562 > 100 µM | SK-OV-3 > 100 µM | HOP-62 > 100 µM | CAKI-1 > 100 µM | 786-0 > 100 µM | MCF7 > 100 µM | CCRF-CEM > 100 µM | RPMI-8226 > 100 µM

COc1ccc(NC(=S)Nc2cc(C)cc(C)n2)cc1
inactive: SK-MEL-5 > 100 µM | UO-31 > 100 µM | SF-295 > 100 µM | HT-29 > 100 µM | HCT-116 > 100 µM | NCI-H226 > 100 µM | KM12 > 100 µM | OVCAR-8 > 100 µM | LOX IMVI > 100 µM | SR > 100 µM | K562 > 100 µM | SK-OV-3 > 100 µM | HOP-62 > 100 µM | CAKI-1 > 100 µM | 786-0 > 100 µM | MCF7 > 100 µM | CCRF-CEM > 100 µM | RPMI-8226 > 100 µM

CC1CCCc2c(C#N)c(N)nc(-c3ccc(Cl)cc3)c21 (configuration not stated)
inactive: SK-MEL-5 9.38 µM | UO-31 13.8 µM | SF-295 18.3 µM | HT-29 6.75 µM | HCT-116 20.7 µM | NCI-H226 14.5 µM | KM12 17.9 µM | OVCAR-8 31 µM | LOX IMVI 16.6 µM | ACHN 17.6 µM | SR 42.2 µM | K562 8.69 µM | SK-OV-3 38.1 µM | HOP-62 5.73 µM | CAKI-1 68.7 µM | 786-0 15.1 µM | MCF7 19.6 µM | CCRF-CEM 22.8 µM | RPMI-8226 11.1 µM

CCSCCCN(CCCSCC)CCCSCC
inactive: SK-MEL-5 > 100 µM | HOP-92 5.16 µM | UO-31 > 100 µM | SF-295 > 100 µM | HT-29 > 100 µM | HCT-116 > 100 µM | KM12 > 100 µM | OVCAR-8 > 100 µM | LOX IMVI > 100 µM | SR > 100 µM | K562 > 100 µM | SK-OV-3 > 100 µM | HOP-62 > 100 µM | 786-0 > 100 µM | MCF7 > 100 µM | CCRF-CEM > 100 µM

CCOC(=O)C12CCC(=O)N1N(C)c1ncccc1N2 (configuration not stated)
inactive: SK-MEL-5 > 100 µM | UO-31 > 100 µM | SF-295 > 100 µM | HT-29 > 100 µM | HCT-116 > 100 µM | NCI-H226 > 100 µM | KM12 > 100 µM | OVCAR-8 > 100 µM | LOX IMVI > 100 µM | ACHN > 100 µM | SR > 100 µM | K562 > 100 µM | SK-OV-3 > 100 µM | HOP-62 > 100 µM | CAKI-1 > 100 µM | 786-0 > 100 µM | MCF7 > 100 µM | CCRF-CEM > 100 µM | RPMI-8226 > 100 µM

COC(=O)C1Cc2cc3c(cc2C1=O)CCCC3 (configuration not stated)
inactive: SK-MEL-5 48 µM | UO-31 51.9 µM | SF-295 62.1 µM | HT-29 61.8 µM | HCT-116 42.3 µM | NCI-H226 23.8 µM | KM12 34.3 µM | OVCAR-8 46.6 µM | LOX IMVI 67 µM | ACHN 94.6 µM | SR 30.3 µM | K562 33.6 µM | SK-OV-3 27.1 µM | HOP-62 48.6 µM | CAKI-1 54.1 µM | 786-0 66.5 µM | MCF7 42 µM | CCRF-CEM 37.2 µM | RPMI-8226 45.9 µM

COc1ccc(NC(=O)/C(=N/NC(N)=S)C2C(=O)NC(=S)NC2=O)c(OC)c1
inactive: SK-MEL-5 > 100 µM | HOP-92 > 100 µM | UO-31 > 100 µM | SF-295 > 100 µM | HT-29 > 100 µM | HCT-116 > 100 µM | NCI-H226 > 100 µM | KM12 > 100 µM | OVCAR-8 > 100 µM | LOX IMVI > 100 µM | ACHN > 100 µM | K562 > 100 µM | SK-OV-3 > 100 µM | CAKI-1 > 100 µM | 786-0 > 100 µM | MCF7 > 100 µM | CCRF-CEM 62.2 µM | RPMI-8226 > 100 µM

CC(C)C1CC[C@H](C)C[C@@H]1OC(=O)C(C(=O)O[C@H]1C[C@@H](C)CCC1C(C)C)C(O)[C@@H]1OC(C)(C)O[C@H]1C1COC(C)(C)O1 (some centres not stated)
inactive: SK-MEL-5 15.8 µM | UO-31 17.3 µM | SF-295 16.1 µM | HT-29 13.4 µM | HCT-116 11.7 µM | NCI-H226 23.8 µM | KM12 16.6 µM | OVCAR-8 21 µM | LOX IMVI 16.8 µM | ACHN 16.6 µM | SR 9.62 µM | K562 11.1 µM | SK-OV-3 26.8 µM | HOP-62 19.7 µM | CAKI-1 16.3 µM | 786-0 16.6 µM | MCF7 8.13 µM | CCRF-CEM 15 µM | RPMI-8226 16.7 µM
